Where “and” joins values, the source holds several entries; their conditions need not be identical. Equal values may be shown once. Marks after values point to notes of the source that are not given here.
What was measured:
[1] = test system: imiquimod-induced skin lesions; assay: Imiquimod-induced psoriasis model in mice: clinical signs and dorsal skin histopathology; format: in vivo; design: key to Hyperkeratosis, protective effect / Epidermal serocellular crust, protective effect / Acanthosis, protective effect / Dermal inflammatory infiltrates, protective effect: the (+) sign represents the presence of a protective effect; a (−) sign represents the absence of protective effect
Source text: To test whether Compound I might ameliorate the signs of psoriasis, we topically administered Compound I to imiquimod-induced skin lesions in mice. The imiquimod mouse model of psoriasis-like skin inflammation is characterized by lesions that show augmented epidermal cell proliferation, abnormal keratinocyte differentiation, neutrophil accumulation in epidermal microabcesses, and neoangiogenesis.
For this study, thirty two 8-week old female Balbc/J mice were housed […] in positively ventilated polysulfonate cages with HEPA filtered air at a density of 4 mice per cage. The animal room was lighted entirely with artificial fluorescent lighting, with a controlled 12 h light/dark cycle (6 am to 6 pm light). The normal temperature and relative humidity ranges in the animal rooms were 22±4° C. and 50±15%, respectively. The animal rooms were set to have a minimum of 15 air exchanges per hour. Filtered tap water, acidified to a pH of 2.5 to 3.0, and standard rodent chow were provided ad libitum. After 1 week of acclimation mice were randomized into 4 groups (n=8/each) as shown below (Table 1).
1. IMQ induction: On day 0 all grouped mice received a topical dose of 62.5 mg of IMQ cream (5%) on the shaved back for 6 consecutive days. (Day 0 to Day 5)
3. Mice were scored for clinical parameters of disease based on degree of erythema, scaling and thickening independently on a scale of 0-4. 0=none; 1=slight; 2=moderate; 3=moderate to severe: 4=severe. These observations were recorded on day 0, 2, 4, 6, and 8. On the same days, back skin thickness was measured with calipers.
5. Mice were sacrificed on day 10 by CO2 asphyxiation.
6. A part of the back skin was harvested and fixed for histology. Slides were processed, stained with H&E for histology assessment.
Dorsal skin sections were evaluated histopathologically for evidence of key features of psoriasis, such as parakeratosis, hyperkeratosis (thickening of the stratum corneum), acanthosis (diffuse thickening of the stratum spinosum of the skin), epidermal serocellular crusts, epidermal microabscesses, basilar papillae, dermal inflammatory infiltrates and dilated tortuous capillaries (Table 2. Histopathological scoring system and definition used in the Imiquimod psoriasis model).

[2] = Body and spleen weight in imiquimod psoriasis model mice; settings: 9 days topical treatment
Experimental: Mice were dosed with 0.1-0.2 ml of vehicle [90% (v/v) DMSO in pyrogen-free sterile water] or test compounds (0.1-0.2 ml of Compound I) or reference compound (˜0.05 mg clobetasol propionate, 0.5 mg/g cream) for 9 days (day 0-day 8) as indicated in Table 1. Compound I Doses 1 and 2 were 0.05% (w/v) and 0.1% (w/v) in 90% (v/v) DMSO in vehicle.
Body weights were measured daily.
Spleens were harvested, weighed and discarded.

LXR-alpha = biological target: T1, LXR-alpha (Homo sapiens, UniProt Q13133); assay: LXR-alpha/RXR LRE-luciferase reporter in transfected HEK293T cells; format: cell-based; settings: 10 uM, 18 h
T1 sequence (Q13133 1-447): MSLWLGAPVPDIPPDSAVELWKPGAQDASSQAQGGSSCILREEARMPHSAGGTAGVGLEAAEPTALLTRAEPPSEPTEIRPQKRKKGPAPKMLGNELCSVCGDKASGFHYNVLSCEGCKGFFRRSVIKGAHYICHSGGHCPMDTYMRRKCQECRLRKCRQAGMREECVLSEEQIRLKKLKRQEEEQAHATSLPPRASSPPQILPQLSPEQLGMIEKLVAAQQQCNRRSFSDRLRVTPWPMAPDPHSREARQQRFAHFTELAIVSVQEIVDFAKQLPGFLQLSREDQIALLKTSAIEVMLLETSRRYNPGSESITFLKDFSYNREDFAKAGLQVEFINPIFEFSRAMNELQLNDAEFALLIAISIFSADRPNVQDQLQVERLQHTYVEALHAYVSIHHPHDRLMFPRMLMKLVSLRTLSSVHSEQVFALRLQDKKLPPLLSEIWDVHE
T1 sequence (P19793 1-462 partner): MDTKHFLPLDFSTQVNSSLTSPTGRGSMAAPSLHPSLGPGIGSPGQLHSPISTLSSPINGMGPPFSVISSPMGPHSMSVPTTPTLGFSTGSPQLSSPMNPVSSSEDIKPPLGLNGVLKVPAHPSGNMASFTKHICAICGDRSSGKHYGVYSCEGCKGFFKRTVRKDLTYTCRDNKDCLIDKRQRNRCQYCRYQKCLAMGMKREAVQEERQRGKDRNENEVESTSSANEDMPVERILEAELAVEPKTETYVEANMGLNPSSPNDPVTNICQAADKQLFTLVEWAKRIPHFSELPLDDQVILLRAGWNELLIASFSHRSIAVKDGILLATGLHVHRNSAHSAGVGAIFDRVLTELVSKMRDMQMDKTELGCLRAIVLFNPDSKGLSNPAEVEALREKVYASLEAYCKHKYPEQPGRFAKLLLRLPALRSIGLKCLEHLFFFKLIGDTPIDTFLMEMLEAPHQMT
Source text: Since we had previously shown that the beneficial effects of the compounds of the invention are independent of glucocorticoid receptor (GR) activation, we set forth to investigate if they might exert their actions through activation of liver X receptors (LXR). For this purpose we used cultured cells transiently transfected with LXR-alpha, the retinoid X receptor (RXR) and a LXR response element-luciferase reporter (LRE-LUC). A. Human embryonic kidney cells (HEK293T; 5×10^5 cells/well) were cultured in DMEM medium supplemented with 10% (v/v) fetal bovine serum, 100 ug/ml of streptomycin, 100 IU/ml of penicillin and 2 mM glutamine. For the transient transfections, the cell cultures were added with plasmids carrying LXR-alpha (pLXR-alpha; 0.6 ug), the retinoid X receptor (pRXR; 0.2 ug), a LXR response element-luciferase reporter (pRE-LUC; 0.7 ug) and beta-galactosidase gene (pRSV-LacZ; 0.6 ug) as a transfection control, using Lipofectamine 2000 (Invitrogen). […] Compounds III to VI are […] analogs bearing a fluorine atom at C-6. To assess LXR-alpha activation, at the end of the incubation period luciferase activity was measured by use of a luciferase assay system (Promega). The results of three independent assays, carried out in duplicate for each condition, are reported.

[3] = Liver weight and gross morphology (hepatic steatosis) in C57BI mice after 5 days i.p. treatment; format: in vivo; settings: male C57BI mice, T0901317 5 mg/kg i.p. daily for 5 days
Experimental: (§1) Administration of synthetic LXR agonists such as T0901317 induces a marked increment of liver lipogenesis that leads to hepatic steatosis and plasma hypertriglyceridemia.
(§2) Male C57BI mice received daily for 5 days intraperitoneal injections containing either 10 mg Compound I/kg, or 5 mg T0901317/kg, or vehicle [90% (v/v) DMSO in apyrogenic sterile water]. On the sixth day of the assay, the animals were fasted for 4 h before decapitation. Blood plasma was obtained for the determination of total cholesterol, HDL-cholesterol and triglyceride contents. The livers were resected, and their weights and colors used as gross markers of increased liver triglyceride contents.

[4] = Plasma total cholesterol, HDL-cholesterol and triglyceride in C57BI mice after 5 days i.p. treatment; format: in vivo; settings: male C57BI mice; T0901317 5 mg/kg i.p. daily for 5 days
Experimental: as §1, §2

[5] = psoriatic mice, topical 0.05%, QD 9 days
[6] = topical 0.05%, summary of Table 3

## CCC(=O)O[C@]1(C(=O)CCl)[C@@H](C)C[C@H]2[C@@H]3CCC4=CC(=O)C=C[C@]4(C)[C@@]3(F)[C@@H](O)C[C@@]21C [Clobetasol, clobetasol propionate, reference compound]
[1]; Clobetasol-treated mice
  acanthosis reduced versus 0.1% (w/v) Compound I-treated animals: 33%
  dermal inflammatory infiltrates versus 0.1% (w/v) Compound I-treated animals: absent
[1]; after 9 days topical, Compound I 0.05% and 0.1% (w/v), clobetasol 0.05% cream
  back skin thickening (calipers): inhibited IMQ-induced skin thickening in the back
[1]; clobetasol 0.05% topical, 9 days
  global response score of dorsal skin, lower than in vehicle-treated psoriatic mice: ~42%
[1]; day 8, topical QD 9 days, both Compound I doses 0.05% and 0.1% (w/v), clobetasol 0.05% cream
  skin erythema (clinical score 0-4, in words): absent
[1]; day 8, topical QD 9 days, both Compound I doses, clobetasol 0.05% cream
  scaling (clinical score 0-4, in words): absent in ⅝ mice and slight in the rest of the animals
[1]; [5]
  Acanthosis (0-4), group mean score of dorsal skin: 1.4††
  Basliar papillae (0-4), group mean score of dorsal skin: 0.0
  Dermal inflammatory infiltrates (0-4), group mean score of dorsal skin: 0.0††
  Dilated tortuous capillaries (0-4), group mean score of dorsal skin: 0.0
  Epidermal micro-abscesses (0-4), group mean score of dorsal skin: 0.0
  Epidermal serocellular rust (0-4), group mean score of dorsal skin: 0.6
  Hyperkeratosis (0-4), group mean score of dorsal skin: 1.8
  Mean Global Score, dorsal skin: 3.8
  Parakeratosis (0-4), group mean score of dorsal skin: 0.0
[1]; topical 0.05%, QD 9 days
  severity of microscopic alterations of back skin (histopathology): lowest severity
[1]; [6]
  Acanthosis, protective effect: +
  Dermal inflammatory infiltrates, protective effect: +
  Epidermal serocellular crust, protective effect: −
  Hyperkeratosis, protective effect: −
[2]
  reduction of body weight compared with vehicle-treated psoriatic mice: 15%
  reduction of spleen weight compared with vehicle-treated psoriatic mice: 62.6%

## CC[C@@H](C(C)C)[C@H](O)[C@@H](O)[C@@H](C)[C@H]1CC[C@H]2[C@@H]3C[C@@H](F)C4=CC(=O)CC[C@]4(C)[C@H]3CC[C@]12C [Compound IV, (22S,23S)-6β-fluoro-22,23-dihydroxystigmast-4-en-3-one]
LXR-alpha
  induction of LXR-alpha driven gene expression compared with GW3965 (1 uM): within the same range as that observed for GW3965

## O=S(=O)(c1ccccc1)N(CC(F)(F)F)c1ccc(C(O)(C(F)(F)F)C(F)(F)F)cc1 [Compound T0901317]
[3]
  liver color versus DMSO-treated mice: paler
  liver steatosis (liver weight and color): induces liver steatosis
[3]; 5 mg/kg
  liver weight higher than in DMSO-treated mice: 27% and ~23%
[4]
  HDL-cholesterol plasmatic content higher than in Compound I- or Vehicle-treated mice: 50%
  total cholesterol plasmatic content higher than in Compound I- or Vehicle-treated mice: 50%
  triglyceride plasmatic content higher than in Compound I- or Vehicle-treated mice: > 2 times

## CC[C@@H](C(C)C)[C@H](O)[C@@H](O)[C@@H](C)[C@H]1CC[C@H]2[C@@H]3C[C@@H](F)C4=CC(=O)C=C[C@]4(C)[C@H]3CC[C@]12C [Compound VI, (22S,23S)-6β-fluoro-22,23-dihydroxystigmasta-1,4-dien-3-one]
LXR-alpha
  induction of LXR-alpha driven gene expression compared with GW3965 (1 uM): within the same range as that observed for GW3965

Source: US20190365784A1, “USE OF BRASSINOSTEROID ANALOGS FOR THE TREATMENT OF DERMAL DISORDERS BY SELECTIVELY MODULATING LIVER X RECEPTORS (LXR) AND DERMAL DISEASE TREATMENT BY BRASSINOSTEROID ANALOGS ACTING AS SELECTIVE LIVER X RECEPTOR (LXR) MODULATORS” (CONSEJO NACIONAL DE INVESTIGACIONES CIENTÍFICAS Y TÉCNICAS …, priority 2015, published 2019)
